The values that follow come from PubChem BioAssay (NCI).

Some test systems named below: LOX IMVI melanoma; SK-MEL-2 melanoma; MDA-MB-231 breast; NCI/ADR-RES ovarian; RPMI-8226 leukemia; SK-MEL-28 melanoma; UACC-62 melanoma; KM12 colon; UO-31 renal; SF-295 CNS; HT29 colon; UACC-257 melanoma; DU-145 prostate; NCI-H460 lung; SK-OV-3 ovarian; SW-620 colon; MALME-3M melanoma; IGROV1 ovarian; COLO 205 colon; OVCAR-8 ovarian.
What all share (assay): NCI tumour cell line growth inhibition, 48 h

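How tested: cells in 96-well plates exposed to compound for 48 hours at five concentrations. At the TGI there is no net growth.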

Turning to `N=C1/C(=C/c2ccccc2)C(=O)N=C2SC=NN12`, the TGI in the test on LOX IMVI melanoma, in the test with SK-MEL-2 melanoma, with MDA-MB-231 breast, in the test with NCI/ADR-RES ovarian, in the test on RPMI-8226 leukemia and with SK-MEL-28 melanoma was above 100 µM each time. Also, the TGI in the test on UACC-62 melanoma, in the test on KM12 colon, in the test with UO-31 renal, in the test on SF-295 CNS, with HT29 colon and in the test on UACC-257 melanoma was above 100 µM throughout. Also, the TGI with DU-145 prostate, in the test with NCI-H460 lung, in the test on SK-OV-3 ovarian, in the test with SW-620 colon, in the test with MALME-3M melanoma and in the test on IGROV1 ovarian was above 100 µM each time. The TGI in the test on COLO 205 colon and in the test with OVCAR-8 ovarian was above 100 µM in each case.

Regarding `c1ccc(-c2sc(-c3ccccc3)c3c2C2CCC3C2)cc1`, the TGI is above 100 µM in the test with LOX IMVI melanoma; 39.5 µM in the test with SK-MEL-2 melanoma; above 100 µM in the test with MDA-MB-231 breast; above 100 µM in the test on NCI/ADR-RES ovarian; 44.9 µM in the test with RPMI-8226 leukemia; above 100 µM in the test on SK-MEL-28 melanoma. The TGI was above 100 µM with UACC-62 melanoma; above 100 µM with KM12 colon; 58.3 µM with UO-31 renal; above 100 µM in the test on SF-295 CNS; 34.5 µM with HT29 colon; above 100 µM in the test on UACC-257 melanoma. For the same molecule, the TGI with DU-145 prostate is above 100 µM; in the test with NCI-H460 lung it was 88.2 µM; in the test on SK-OV-3 ovarian, above 100 µM; in the test with SW-620 colon it was above 100 µM; with MALME-3M melanoma it was above 100 µM; in the test on IGROV1 ovarian, above 100 µM. Moreover, the TGI was 38.1 µM in the test with COLO 205 colon and above 100 µM in the test on OVCAR-8 ovarian.

In the case of `C[C@]12CC[C@H]3[C@@H](CC=C4C[C@@H](O)CC[C@@]43C)[C@@H]1C[C@H](N1CCOCC1)[C@@H]2O`, the TGI in the test with LOX IMVI melanoma, with SK-MEL-2 melanoma, in the test on MDA-MB-231 breast, in the test with NCI/ADR-RES ovarian, in the test with RPMI-8226 leukemia and with SK-MEL-28 melanoma was above 100 µM throughout. For the same molecule, the TGI in the test with UACC-62 melanoma, with KM12 colon, in the test on UO-31 renal, with SF-295 CNS, in the test on HT29 colon and in the test with UACC-257 melanoma was above 100 µM in each case. Also, the TGI in the test on DU-145 prostate, in the test on NCI-H460 lung, in the test with SK-OV-3 ovarian, in the test with SW-620 colon, in the test with MALME-3M melanoma and in the test on IGROV1 ovarian was above 100 µM in each case. Also, the TGI in the test on COLO 205 colon and in the test on OVCAR-8 ovarian was above 100 µM each time.

With `Cc1ccc(N(C)S(=O)(=O)c2ccccc2)cc1`, the TGI in the test with LOX IMVI melanoma, with SK-MEL-2 melanoma, in the test with MDA-MB-231 breast, in the test with NCI/ADR-RES ovarian, in the test on RPMI-8226 leukemia and in the test with SK-MEL-28 melanoma was above 100 µM each time. Also, the TGI with UACC-62 melanoma, in the test on KM12 colon, in the test on UO-31 renal, in the test on SF-295 CNS, with HT29 colon and in the test on UACC-257 melanoma was above 100 µM in each case. For the same molecule, the TGI in the test with DU-145 prostate, with NCI-H460 lung, with SK-OV-3 ovarian, with SW-620 colon, in the test with MALME-3M melanoma and in the test with IGROV1 ovarian was above 100 µM throughout. The TGI in the test on COLO 205 colon and in the test with OVCAR-8 ovarian was above 100 µM throughout.

Consider `O=C(Nc1sccc1S(=O)(=O)c1ccc(Cl)cc1)c1ccc(Cl)cc1Cl`, for which the TGI in the test on LOX IMVI melanoma, with SK-MEL-2 melanoma, in the test with MDA-MB-231 breast, with NCI/ADR-RES ovarian, in the test with RPMI-8226 leukemia and in the test with SK-MEL-28 melanoma was above 100 µM in each case. The TGI in the test with UACC-62 melanoma, in the test on KM12 colon, with UO-31 renal, in the test with SF-295 CNS, in the test on HT29 colon and in the test on UACC-257 melanoma was above 100 µM throughout. For the same molecule, the TGI in the test with DU-145 prostate, with NCI-H460 lung, in the test on SK-OV-3 ovarian, in the test with SW-620 colon, in the test with MALME-3M melanoma and in the test with IGROV1 ovarian was above 100 µM throughout. The TGI with COLO 205 colon and in the test on OVCAR-8 ovarian was above 100 µM throughout.

Turning to `Nc1nc(Cl)cc(NCC2(CO)CC(c3ccccc3)C2)n1` (stereo not given), the TGI with LOX IMVI melanoma was above 100 µM; with SK-MEL-2 melanoma, above 100 µM; in the test with MDA-MB-231 breast, above 100 µM; with NCI/ADR-RES ovarian, 92.2 µM; in the test on RPMI-8226 leukemia, above 100 µM; with SK-MEL-28 melanoma, above 100 µM. In addition, the TGI with UACC-62 melanoma, in the test on KM12 colon, with UO-31 renal, in the test with SF-295 CNS, in the test on HT29 colon and in the test on UACC-257 melanoma was above 100 µM in each case. The TGI with DU-145 prostate, in the test on NCI-H460 lung, with SK-OV-3 ovarian, with SW-620 colon, in the test on MALME-3M melanoma and with IGROV1 ovarian was above 100 µM throughout. The TGI in the test on COLO 205 colon and with OVCAR-8 ovarian was above 100 µM throughout.
